Assay results published in patent US11759462B2, “Spirocyclic compounds as tryptophan hydroxylase inhibitors” (priority 2013, dated 2023).
Like-named read-outs stand apart in the source and are kept apart here.

How the values were obtained:
[1] = tested on: jejunal mucosal 5-HT in mice (C57 BL6); experiment: Reduction of mucosal 5-HT concentrations (Example C, repeated oral dosing); format: in vivo, mouse; details: after three oral doses (first 10 or 50 mg/kg, then two doses of 50 mg/kg) (title), P-value class
Procedure: The efficacy of the TPH1 inhibitors of the invention was assessed for the ability to decrease intestinal serotonin concentration in mice. Mice (C57 BL6) were administered an oral dose of 10 or 50 mg/kg of the test article in the evening. […] Following an overnight fast, each animal was euthanized by exsanguination under isoflurane anesthesia. Jejunal intestinal mucosa was isolated and homogenized in […] of a buffer containing 0.3M trichloroacetic acid, 0.1M sodium acetate, 10 mM EDTA, 20 mM sodium bisulfate and 50 mM ascorbic acid. Following centrifugation the 5-HT levels in the supernatants were measured by HPLC. The remaining mucosal pellet was solubilized overnight at 37° C. in a 0.1% sodium dodecyl sulfate buffer in 0.1N NaOH followed by determination of protein concentrations using a BCA protein assay (Pierce, Rockford, Ill.). 5-HT levels were normalized to protein and data were expressed as mean percent reduction of mucosal 5-HT levels relative to vehicle control±SEM (percent 5-HT reduction). All animal studies were carried out with protocols approved by the Institutional Animal Care and Use Committee. P-values, indicating statistical significance of the data (ANOVA) are provided in the table: * refers to P<0.05,** refers to P<0.01, *** refers to P<0.005, and **** refers to P<0.0005.

[2] = target: T1, Recombinant human TPH1 (MBP tagged) (Homo sapiens, UniProt P17752); experiment: TPH1 in vitro inhibition assay (kinetic fluorescence); format: biochemical
T1 construct: cloning full length human TPH1 cDNA in to a bacterial pMAL-c5E expression vector; made in house; host or cells: E. coli BL21 (DE3)
T1 sequence (P17752 1-444): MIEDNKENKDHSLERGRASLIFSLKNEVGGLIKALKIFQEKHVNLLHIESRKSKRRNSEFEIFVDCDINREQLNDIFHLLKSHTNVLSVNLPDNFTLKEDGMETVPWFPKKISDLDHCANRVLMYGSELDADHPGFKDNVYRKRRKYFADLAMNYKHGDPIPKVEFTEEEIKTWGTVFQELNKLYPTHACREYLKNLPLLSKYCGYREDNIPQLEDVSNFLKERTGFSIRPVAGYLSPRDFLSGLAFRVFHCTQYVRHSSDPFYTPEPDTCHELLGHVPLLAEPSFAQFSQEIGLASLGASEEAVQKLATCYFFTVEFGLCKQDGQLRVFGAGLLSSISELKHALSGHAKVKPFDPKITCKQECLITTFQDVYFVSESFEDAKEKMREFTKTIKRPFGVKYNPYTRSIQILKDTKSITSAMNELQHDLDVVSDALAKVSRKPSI
Outline: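 Final mix: 15 nM MBP-TPH1, 30 μM Trp, 36 μM 6-methyltetrahydropterin, 25 μM ferrous ammonium sulfate, 50 mM MES pH 7.1, 1% DMSO, room temperature.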

[3] = tested on: jejunal mucosal 5-HT in mice (C57 BL6); experiment: Intestinal 5-HT depletion assay (Example B, single 150 mg/kg oral dose); format: in vivo, mouse; details: one day after oral administration of a single 150 mg/kg dose, P-value class (ANOVA)
Outline: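 C57 BL6 mice received one 150 mg/kg oral gavage dose; jejunal mucosa was homogenized in acidic trichloroacetic acid buffer and 5-HT measured by HPLC. Levels normalized to BCA protein, expressed as mean percent reduction versus vehicle ± SEM; ANOVA significance.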

[4] = read-out: TPH1 Range (TPH1 inhibition IC50)
[5] = TPH1 Range (TPH1 inhibition IC50)

Compound: CCOC(=O)[C@@H]1CC2(CCN(c3cc(O[C@H](c4ccccc4-c4cccc(Cl)c4)C(F)(F)F)nc(N)n3)CC2)CN1 [Example 63eo, (S)-ethyl 8-(2-amino-6-((R)-1-(3′-chloro-[1,1′-biphenyl]-2-yl)-2,2,2-trifluoroethoxy)pyrimidin-4-yl)-2,8-diazaspiro[4.5]decane-3-carboxylate]
- Efficacy (statistical significance of reduction of mucosal 5-HT concentrations relative to vehicle) [1]: *** (*** refers to P<0.005)

Compound: CCOC(=O)[C@@H]1CC2(CCN(c3cc(O[C@H](c4ccc(Cl)cc4-c4cccc(OC)c4)C(F)(F)F)nc(N)n3)CC2)CN1 [Example 63ep, (S)-ethyl 8-(2-amino-6-((R)-1-(5-chloro-3′-methoxy-[1,1′-biphenyl]-2-yl)-2,2,2-trifluoroethoxy)pyrimidin-4-yl)-2,8-diazaspiro[4.5]decane-3-carboxylate]
- Efficacy (statistical significance of reduction of mucosal 5-HT concentrations relative to vehicle) [1]: *** (*** refers to P<0.005)

Compound: Nc1nc(O[C@H](c2ccc(-c3cccc(F)c3)cc2)C(F)(F)F)cc(N2CCC3(CC2)CN[C@H](C(=O)O)C3)n1 [Example 55am, (S)-8-(2-amino-6-((R)-2,2,2-trifluoro-1-(3′-fluoro-[1,1′-biphenyl]-4-yl)ethoxy)pyrimidin-4-yl)-2,8-diazaspiro[4.5]decane-3-carboxylic acid]
- IC50 [2, 4]: 50 to 300 nM
- Efficacy (statistical significance of reduction of mucosal 5-HT concentrations relative to vehicle) [3]: *** (*** refers to P<0.005)

Compound: Nc1nc(O[C@H](c2ccc(Cl)cc2-c2cccc(O)c2)C(F)(F)F)cc(N2CCC3(CC2)CN[C@H](C(=O)O)C3)n1 [Example 34v, (S)-8-(2-amino-6-((R)-1-(5-chloro-3′-hydroxy-[1,1′-biphenyl]-2-yl)-2,2,2-trifluoroethoxy)pyrimidin-4-yl)-2,8-diazaspiro[4.5]decane-3-carboxylic acid]
- IC50 [2, 4]: < 50 nM
- Efficacy (statistical significance of reduction of mucosal 5-HT concentrations relative to vehicle) [3]: * (* refers to P<0.05)

Compound: Cc1ccn(-c2cc(-c3ccc(C(C)(C)C)cc3)ccc2[C@@H](Oc2cc(N3CCC4(CC3)CN[C@H](C(=O)O)C4)nc(N)n2)C(F)(F)F)n1 [Example 1p, (S)-8-(2-amino-6-((R)-1-(4′-(tert-butyl)-3-(3-methyl-1H-pyrazol-1-yl)-[1,1′-biphenyl]-4-yl)-2,2,2-trifluoroethoxy)pyrimidin-4-yl)-2,8-diazaspiro[4.5]decane-3-carboxylic acid]
- IC50 [2, 4]: < 50 nM
- Efficacy (statistical significance of reduction of mucosal 5-HT concentrations relative to vehicle) [3]: ** (** refers to P<0.01)

Compound: CCCc1ccc([C@@H](Oc2cc(N3CCC4(CC3)CN[C@H](C(=O)O)C4)nc(N)n2)C(F)(F)F)c(-n2ccc(C)n2)c1 [Example 12b, (S)-8-(2-amino-6-((R)-2,2,2-trifluoro-1-(2-(3-methyl-1H-pyrazol-1-yl)-4-propylphenyl)ethoxy)pyrimidin-4-yl)-2,8-diazaspiro[4.5]decane-3-carboxylic acid]
- IC50 [2, 4]: < 50 nM
- Efficacy (statistical significance of reduction of mucosal 5-HT concentrations relative to vehicle) [3]: * (* refers to P<0.05)

Compound: CS(=O)(=O)c1cccc(-c2cc(Cl)ccc2[C@@H](Oc2cc(N3CCC4(CC3)CN[C@H](C(=O)O)C4)nc(N)n2)C(F)(F)F)c1 [Example 34w, (S)-8-(2-amino-6-((R)-1-(5-chloro-3′-(methylsulfonyl)-[1,1′-biphenyl]-2-yl)-2,2,2-trifluoroethoxy)pyrimidin-4-yl)-2,8-diazaspiro[4.5]decane-3-carboxylic acid]
- IC50 [2, 5]: < 50 nM
- Efficacy (statistical significance of reduction of mucosal 5-HT concentrations relative to vehicle) [3]: *** (*** refers to P<0.005)

Compound: COc1ccc([C@@H](Oc2cc(N3CCC4(CC3)CNC(C(=O)O)C4)nc(N)n2)C(F)(F)F)c(-n2ccc(C)n2)c1 (stereo partly drawn) [Example 10j, 8-(2-amino-6-((R)-2,2,2-trifluoro-1-(4-methoxy-2-(3-methyl-1H-pyrazol-1-yl)phenyl)ethoxy)pyrimidin-4-yl)-2,8-diazaspiro[4.5]decane-3-carboxylic acid]
- IC50 [2, 4]: 50 to 300 nM
- Efficacy (statistical significance of reduction of mucosal 5-HT concentrations relative to vehicle) [3]: **** (and refers to P<0.0005)

Compound: Cc1ccn(-c2cc(-c3cnn(C)c3)ccc2[C@@H](Oc2cc(N3CCC4(CC3)CN[C@H](C(=O)O)C4)nc(N)n2)C(F)(F)F)n1 [Example 1h, (S)-8-(2-amino-6-((R)-2,2,2-trifluoro-1-(2-(3-methyl-1H-pyrazol-1-yl)-4-(1-methyl-1H-pyrazol-4-yl)phenyl)ethoxy)pyrimidin-4-yl)-2,8-diazaspiro[4.5]decane-3-carboxylic acid]
- IC50 [2, 4]: < 50 nM
- Efficacy (statistical significance of reduction of mucosal 5-HT concentrations relative to vehicle) [3]: ** (** refers to P<0.01)

Compound: Cc1n[nH]c2cc(-c3ccc([C@@H](Oc4cc(N5CCC6(CC5)CN[C@H](C(=O)O)C6)nc(N)n4)C(F)(F)F)cc3)ccc12 [Example 55az, (S)-8-(2-amino-6-((R)-2,2,2-trifluoro-1-(4-(3-methyl-1H-indazol-6-yl)phenyl)ethoxy)pyrimidin-4-yl)-2,8-diazaspiro[4.5]decane-3-carboxylic acid]
- IC50 [2, 4]: < 50 nM
- Efficacy (statistical significance of reduction of mucosal 5-HT concentrations relative to vehicle) [3]: *** (*** refers to P<0.005)

Compound: Nc1nc(O[C@H](c2ccc(Cl)cc2-c2cccc(S(N)(=O)=O)c2)C(F)(F)F)cc(N2CCC3(CC2)CN[C@H](C(=O)O)C3)n1 [Example 34u, (S)-8-(2-amino-6-((R)-1-(5-chloro-3′-sulfamoyl-[1,1′-biphenyl]-2-yl)-2,2,2-trifluoroethoxy)pyrimidin-4-yl)-2,8-diazaspiro[4.5]decane-3-carboxylic acid]
- IC50 [2, 5]: < 50 nM
- Efficacy (statistical significance of reduction of mucosal 5-HT concentrations relative to vehicle) [3]: * (* refers to P<0.05)

Compound: Cc1ccn(-c2ccc(Cl)cc2[C@@H](Oc2cc(N3CCC4(CC3)CNC(C(=O)O)C4)nc(N)n2)C(F)(F)F)n1 (stereo partly drawn) [Example 10k, 8-(2-amino-6-((R)-1-(5-chloro-2-(3-methyl-1H-pyrazol-1-yl)phenyl)-2,2,2-trifluoroethoxy)pyrimidin-4-yl)-2,8-diazaspiro[4.5]decane-3-carboxylic acid]
- IC50 [2, 4]: 50 to 300 nM
- Efficacy (statistical significance of reduction of mucosal 5-HT concentrations relative to vehicle) [3]: * (* refers to P<0.05)

Compound: (3S)-8-(2-amino-6-(2,2,2-trifluoro-1-(3′-fluoro- [1,1′-biphenyl]-4-yl)ethoxy)pyrimidin-4-yl)-2,8- diazaspiro[4.5]decane-3-carboxylic acid [Example 55ak]
- IC50 [2, 4]: 300 to 3000 nM
- Efficacy (statistical significance of reduction of mucosal 5-HT concentrations relative to vehicle) [3]: ** (** refers to P<0.01)

Compound: Nc1nc(O[C@H](c2ccc(-c3ccc4ncsc4c3)cc2)C(F)(F)F)cc(N2CCC3(CC2)CN[C@H](C(=O)O)C3)n1 [Example 55k, (S)-8-(2-amino-6-((R)-1-(4-(benzo[d]thiazol-6-yl)phenyl)-2,2,2-trifluoroethoxy)pyrimidin-4-yl)-2,8-diazaspiro[4.5]decane-3-carboxylic acid]
- IC50 [2, 4]: 50 to 300 nM
- Efficacy (statistical significance of reduction of mucosal 5-HT concentrations relative to vehicle) [3]: * (* refers to P<0.05)

Compound: COc1cccc(-c2ccc(C(Oc3cc(N4CCC5(CC4)CN[C@H](C(=O)O)C5)nc(N)n3)C(F)(F)F)cc2)c1 (stereo partly drawn) [Example 55al, (3S)-8-(2-amino-6-(2,2,2-trifluoro-1-(3′-methoxy-[1,1′-biphenyl]-4-yl)ethoxy)pyrimidin-4-yl)-2,8-diazaspiro[4.5]decane-3-carboxylic acid]
- IC50 [2, 4]: 50 to 300 nM
- Efficacy (statistical significance of reduction of mucosal 5-HT concentrations relative to vehicle) [3]: * (* refers to P<0.05)

Compound: Cc1ccn(-c2cc(C(=O)O)ccc2[C@@H](Oc2cc(N3CCC4(CC3)CN[C@H](C(=O)O)C4)nc(N)n2)C(F)(F)F)n1 [Example 16, (S)-8-(2-amino-6-((R)-1-(4-carboxy-2-(3-methyl-H-pyrazol-1-yl)phenyl)-2,2,2-trifluoroethoxy)pyrimidin-4-yl)-2,8-diazaspiro[4.5]decane-3-carboxylic acid]
- IC50 [2, 4]: 300 to 3000 nM
- Efficacy (statistical significance of reduction of mucosal 5-HT concentrations relative to vehicle) [3]: ** (** refers to P<0.01)
